Measured values as given in PubChem BioAssay AID1963844 (Molecular Pharmacology Branch, DTP, NCI, 2024).

Tested on: 422866-222-R5-J1-PDC complex spheroid viability
Assay: Anticancer human tumor 422866-222-R5-J1-PDC patient-derived pancreatic adenocarcinoma cell line growth inhibition [POLQ]
Details: for IC50: curve of first compound; for viability, T/C: stronger effect = lower value
Experimental: Multicellular complex tumor spheroid response to Polymerase (POL) inhibitors (novobiocin, ART-558, RP6685) in combination with a variety of drugs and investigational agents in selected tumor cell lines
The POL inhibitors (novobiocin, ART-558, and RP6685) were evaluated both individually and in combination with standard of care and investigational anticancer small molecules within a complex spheroid model of solid tumors. . Complex spheroids include a stromal component modeled by human endothelial cells (HUVEC) and fibroblasts modeled by human mesenchymal stem cells (MSCs). The concentration ranges selected for each drug and investigational agent were based upon clinically achievable concentrations if the clinical Cmax of the agent was known.
Compounds. The drugs and investigational agents: novobiocin (NSC847541), ART-558 (NSC835418), RP-6685 (NSC848927), peposertib (NSC802822), ceralasertib (NSC780249), elimusertib (NSC800525), camonsertib (NSC841442), AZD-1390 (NSC803789), olaparib (NSC753686), talazoparib (NSC767125), rucaparib (NSC756644), sotorasib (NSC818433), MRTX-1133 (NSC836407), SN-38 (NSC673596), topotecan (NSC609699), epotoside (NSC141540), doxorubicin (NSC123127), gemcitabine (NSC613327), 5-fluorouracil (NSC19893), paclitaxel (NSC125973), vemurafenib (NSC761431), MSA-2 (NSC828583), SN-011 (NSC837082), adavosertib (NSC754352), prexasertib (NSC758257), carboplatin (NSC241240) and oxaliplatin (NSC266046), were obtained from the National Cancer Institute (NCI) Developmental Therapeutics Program Chemical Repository (21). The FDA-approved anticancer drug set is available from the Developmental Therapeutics Program at https://dtp.cancer.gov/organization/dscb/obtaining/. […] The stock solutions were prepared in dimethyl sulfoxide (DMSO, Sigma-Aldrich, St. Louis, MO, cat. D2650), except for the platinum compounds which were prepared in saline (Quality Biological, Gaithersburg, MD, cat. 114-055-101), at 800-fold the tested concentration and stored at -70 degrees C prior to their use. All drugs and investigational agents were tested over a range starting from a high concentration at or near the clinical Cmax and decreasing in half-log increments. If the clinical Cmax for an agent had not been determined, the highest concentration tested was 10 microM, except for SN-38, which was tested at a high concentration of 1 microM.
Cell Culture. All cells were maintained in an incubator at 37 degrees C and 5% CO2 with 95% humidity. The PDC lines were cultured according to standard operating procedures established by the NCI PDMR (https://pdmr.cancer.gov). Table 3 of the manuscript, lists the cell lines along with the number of the three cell types plated to form the mct-spheroids and media for tumor cell growth. After thawing, all PDC lines, except 997537-175-T-J1-PDC and 415267-285-R-J2-PDC, were cultured in Matrigel-coated flasks prepared with a working solution of 1X Ham's F-12 nutrient mix, without supplementation (Thermo Fisher Scientific, cat. 11765054), 100 U/mL penicillin-streptomycin (Thermo Fisher Scientific, cat. 15140122), and 2.5% Matrigel (Corning Inc., Corning, NY, cat. 354248) for the first three passages. The two PDC lines 997537-175-T-J1-PDC and 415267-285-R-J2-PDC were cultured on uncoated flasks. The 857933-349-R-J2-PDC line was cultured in 6C/Colon 1B media containing advanced DMEM/F-12 (Thermo Fisher Scientific, cat. 12634028), 10 mM HEPES (Thermo Fisher Scientific, cat. 15630080), 1X GlutaMAX supplement (Thermo Fisher Scientific, cat. 35050061), 0.1 mg/mL primocin (InvivoGen, San Diego, CA, cat. ant-pm-2), 10% defined fetal bovine serum, heat inactivated (HyClone Laboratories Inc., Logan, UT, cat. SH30070.03HI), 50% L-WRN conditioned media (ATCC, cat. CRL-3276), 1.25 mM N-Acetyl-L-cysteine (Sigma-Aldrich, cat. A9165), 10 mM nicotinamide (Sigma-Aldrich, cat. N0636), 1X B-27 supplement (Thermo Fisher Scientific, cat. 17504044), 1X N-2 supplement (Thermo Fisher Scientific, cat. […]

[1] = second compound 0.0316 µM, first compound 0.0316 µM
[2] = second compound 0.0316 µM, first compound 0.1 µM
[3] = second compound 0.1 µM, first compound 0.0316 µM
[4] = second compound 0.1 µM, first compound 0.1 µM
[5] = second compound 0.316 µM, first compound 0.0316 µM
[6] = second compound 0.316 µM, first compound 0.1 µM
[7] = second compound 1 µM, first compound 0.0316 µM
[8] = second compound 1 µM, first compound 0.1 µM
[9] = second compound 3.16 µM, first compound 0.0316 µM
[10] = second compound 3.16 µM, first compound 0.1 µM
[11] = second compound 10 µM, first compound 0.0316 µM
[12] = second compound 10 µM, first compound 0.1 µM
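Note: spheroids exposed to compounds for one week before readout.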
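Throughout, for viability, T/C: percent of DMSO vehicle wells luminescence so 100% = untreated viability.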

CC[C@@]1(O)C(=O)OCc2c1cc1n(c2=O)Cc2cc3c(CN(C)C)c(O)ccc3nc2-1 + COC1C(OC(N)=O)C(O)C(Oc2ccc3c(O)c(NC(=O)c4ccc(O)c(CC=C(C)C)c4)c(=O)oc3c2C)OC1(C)C
IC50 (second compound 0.0316 µM): 22.9 nM
IC50 (second compound 0.1 µM): 21.6 nM
IC50 (second compound 0.316 µM): 23.3 nM
IC50 (second compound 1 µM): 20.7 nM
IC50 (second compound 3.16 µM): 26 nM
IC50 (second compound 10 µM): 22.4 nM
viability, T/C (second compound 0.0316 µM, first compound 0.000316 µM): 105%
viability, T/C (second compound 0.0316 µM, first compound 0.001 µM): 92.5%
viability, T/C (second compound 0.0316 µM, first compound 0.00316 µM): 96.7%
viability, T/C (second compound 0.0316 µM, first compound 0.01 µM): 77%
viability, T/C [1]: 39.2%
viability, T/C [2]: 32.7%
viability, T/C (second compound 0.1 µM, first compound 0.000316 µM): 92.1%
viability, T/C (second compound 0.1 µM, first compound 0.001 µM): 96.3%
viability, T/C (second compound 0.1 µM, first compound 0.00316 µM): 99.4%
viability, T/C (second compound 0.1 µM, first compound 0.01 µM): 77.8%
viability, T/C [3]: 32.3%
viability, T/C [4]: 40.1%
viability, T/C (second compound 0.316 µM, first compound 0.000316 µM): 113%
viability, T/C (second compound 0.316 µM, first compound 0.001 µM): 97.9%
viability, T/C (second compound 0.316 µM, first compound 0.00316 µM): 85.4%
viability, T/C (second compound 0.316 µM, first compound 0.01 µM): 69.1%
viability, T/C [5]: 37.3%
viability, T/C [6]: 39.4%
viability, T/C (second compound 1 µM, first compound 0.000316 µM): 106%
viability, T/C (second compound 1 µM, first compound 0.001 µM): 92.3%
viability, T/C (second compound 1 µM, first compound 0.00316 µM): 92%
viability, T/C (second compound 1 µM, first compound 0.01 µM): 61.8%
viability, T/C [7]: 43.1%
viability, T/C [8]: 35.6%
viability, T/C (second compound 3.16 µM, first compound 0.000316 µM): 96.4%
viability, T/C (second compound 3.16 µM, first compound 0.001 µM): 105%
viability, T/C (second compound 3.16 µM, first compound 0.00316 µM): 90.9%
viability, T/C (second compound 3.16 µM, first compound 0.01 µM): 71.5%
viability, T/C [9]: 45.3%
viability, T/C [10]: 37.8%
viability, T/C (second compound 10 µM, first compound 0.000316 µM): 93.8%
viability, T/C (second compound 10 µM, first compound 0.001 µM): 95.2%
viability, T/C (second compound 10 µM, first compound 0.00316 µM): 83.2%
viability, T/C (second compound 10 µM, first compound 0.01 µM): 71.6%
viability, T/C [11]: 39.8%
viability, T/C [12]: 30.8%

CNCc1ccc(-c2[nH]c3cc(F)cc4c3c2CCNC4=O)cc1 + COC1C(OC(N)=O)C(O)C(Oc2ccc3c(O)c(NC(=O)c4ccc(O)c(CC=C(C)C)c4)c(=O)oc3c2C)OC1(C)C
IC50 (second compound 0.0316 µM): > 10000 nM
IC50 (second compound 0.1 µM): > 10000 nM
IC50 (second compound 0.316 µM): > 10000 nM
IC50 (second compound 1 µM): > 10000 nM
IC50 (second compound 3.16 µM): > 10000 nM
IC50 (second compound 10 µM): > 10000 nM
viability, T/C [1]: 96.6%
viability, T/C [2]: 97.2%
viability, T/C (second compound 0.0316 µM, first compound 0.316 µM): 75.3%
viability, T/C (second compound 0.0316 µM, first compound 1 µM): 97.3%
viability, T/C (second compound 0.0316 µM, first compound 3.16 µM): 83.4%
viability, T/C (second compound 0.0316 µM, first compound 10 µM): 105%
viability, T/C [3]: 124%
viability, T/C [4]: 109%
viability, T/C (second compound 0.1 µM, first compound 0.316 µM): 104%
viability, T/C (second compound 0.1 µM, first compound 1 µM): 99.1%
viability, T/C (second compound 0.1 µM, first compound 3.16 µM): 76.7%
viability, T/C (second compound 0.1 µM, first compound 10 µM): 95%
viability, T/C [5]: 99.5%
viability, T/C [6]: 101%
viability, T/C (second compound 0.316 µM, first compound 0.316 µM): 98.2%
viability, T/C (second compound 0.316 µM, first compound 1 µM): 83%
viability, T/C (second compound 0.316 µM, first compound 3.16 µM): 92%
viability, T/C (second compound 0.316 µM, first compound 10 µM): 95.1%
viability, T/C [7]: 116%
viability, T/C [8]: 104%
viability, T/C (second compound 1 µM, first compound 0.316 µM): 101%
viability, T/C (second compound 1 µM, first compound 1 µM): 92.9%
viability, T/C (second compound 1 µM, first compound 3.16 µM): 96.8%
viability, T/C (second compound 1 µM, first compound 10 µM): 99%
viability, T/C [9]: 93%
viability, T/C [10]: 101%
viability, T/C (second compound 3.16 µM, first compound 0.316 µM): 92.9%
viability, T/C (second compound 3.16 µM, first compound 1 µM): 71.7%
viability, T/C (second compound 3.16 µM, first compound 3.16 µM): 83.5%
viability, T/C (second compound 3.16 µM, first compound 10 µM): 99%
viability, T/C [11]: 96.8%
viability, T/C [12]: 102%
viability, T/C (second compound 10 µM, first compound 0.316 µM): 100%
viability, T/C (second compound 10 µM, first compound 1 µM): 90%
viability, T/C (second compound 10 µM, first compound 3.16 µM): 103%
viability, T/C (second compound 10 µM, first compound 10 µM): 90.2%
